Values of other authors as cited in patent publication US9877930B2, “Topical ubiquinol oral supplement compositions with amorphous calcium phosphate” (Premier Dental Products Company, priority 2012, dated 2018).

Assays:
adult periodontitis = conditions: topical once weekly via syringe for six weeks, with mechanical debridement; sites that bled at day 0
[1] = 150 mg per day in a softgel, orally, within 28 days
[2] = system: human monocytic celline THP-1; conditions: LPS-stimulated THP-1
[3] = not given; remark: listed apart in the source
periodontal disease = conditions: 150 mg capsule/day for two months

SMILES	bleeding on probing at treated sites (adult periodontitis)	peak blood values [1]	water solubility	effect on inflammatory cytokines and chemokines in vitro [2]	time required to reach peak concentration ([3]; absorption from the gastrointestinal tract)	time to steady-state concentrations ([3]; oral treatment)	effect on oral environment for periodontal disease (periodontal disease)
COC1=C(OC)C(=O)C(C/C=C(\C)CC/C=C(\C)CC/C=C(\C)CC/C=C(\C)CC/C=C(\C)CC/C=C(\C)CC/C=C(\C)CC/C=C(\C)CC/C=C(\C)CCC=C(C)C)=C(C)C1=O [CoQ10, ubiquinone]	no bleeding at six weeks						
COc1c(O)c(C)c(C/C=C(\C)CC/C=C(\C)CC/C=C(\C)CC/C=C(\C)CC/C=C(\C)CC/C=C(\C)CC/C=C(\C)CC/C=C(\C)CC/C=C(\C)CCC=C(C)C)c(O)c1OC [UBIQUINOL]		3.84 µg/mL	less than 0.1 mg/ml	anti-inflammatory effects	approximately 6 hours	within two weeks	effective in improving oral environment for periodontal disease
